This passage reports MIC results from patent publication US5237060A, “Process of preparing enantiomerically pure 1,8-bridged 4-quinolone-3-carboxylic acids” (Bayer Aktiengesellschaft, priority 1985, dated 1993).

In brackets after ≈: the same amount, converted by molar mass. Read-outs that look alike come from different tables or passages of the source. Some results are limits rather than exact numbers.

What all share (assay): MIC, agar dilution test (isosensitest medium)
Holding throughout (assay type): cell-based
In general terms: In agar dilution the substance is mixed into plates at graded concentrations.

The test system of test [1] is E. coli 4418. Conditions: Escherichia coli. The text has this:
(§1) Agar dilution test (isosensitest medium); Denley multipoint inoculator

For test [2], the system named is E. coli A 261. Conditions: Escherichia coli, A261.
From the text: as §1

Test [3] deals with E. coli T 7. The following applies: Escherichia coli, T7.
From the text: as §1

For test [4], the system named is Klebsiella 57 USA.
From the text: as §1

Test [5] relates to Klebsiella 6318.
From the text: as §1

Test [6] has as its system Klebsiella 63.
From the text: as §1

For test [7], the system named is Proteus 1875.
From the text: as §1

Test [8] concerns Proteus Vulg. 1017.
From the text: as §1

The subject of test [9] is Providencia 12012.
From the text: as §1

Test [10] has as its system Pseudomonas Ellsworth.
From the text: as §1

Test [11] has as its system Pseudomonas Walter.
From the text: as §1

Test [12] concerns Staph. 133.
From the text: as §1

Test [13] has as its system Staph. 1756.
From the text: as §1

The subject of test [14] is Staph. F 422.
From the text: as §1

The subject of test [15] is Strepto 9790.
From the text: as §1

Where [16] appears, read: E. coli 4418, agar dilution, read-out: MIC.
Where [17] appears, read: Klebsiella 57 USA, agar dilution, read-out: MIC.
Where [18] appears, read: Klebsiella 6318, agar dilution, read-out: MIC.
The mark [19] stands for this setting: Klebsiella 63, agar dilution, read-out: MIC.
The mark [20] stands for this setting: Proteus 1875, agar dilution, read-out: MIC.
Where [21] appears, read: Proteus Vulg. 1017, agar dilution, read-out: MIC.

In general, MIC refers to the lowest concentration that inhibits growth of the organism.

For `CC1COc2c(N3CCN(C)CC3)c(F)cc3c(=O)c(C(=O)O)cn1c23` (racemic) [Ofloxacin, reference compound], the MIC in test [1] (setting [16]) was 0.25 µg/mL (≈ 0.692 µM); in test [2] it was 0.03 µg/mL (≈ 0.083 µM); in test [3] it was 0.06 µg/mL (≈ 0.166 µM); in test [4] (setting [17]), 0.25 µg/mL (≈ 0.692 µM); in [5] (setting [18]), 0.25 µg/mL (≈ 0.692 µM); in [6] (Klebsiella, 63), 0.125 µg/mL (≈ 0.346 µM). For the same compound, the MIC was 0.125 µg/mL (≈ 0.346 µM) in test [7]; 0.125 µg/mL (≈ 0.346 µM) in test [8]; 0.25 µg/mL (≈ 0.692 µM) in [9]; 0.5 µg/mL (≈ 1.38 µM) in test [10]; 2 µg/mL (≈ 5.53 µM) in [11]; 0.5 µg/mL (≈ 1.38 µM) in [12]. Further, the MIC was determined as 0.5 µg/mL (≈ 1.38 µM) in [13], 0.5 µg/mL (≈ 1.38 µM) in [14] and 2 µg/mL (≈ 5.53 µM) in test [15].

Regarding `C[C@H]1COc2c(N3CCN(C)CC3)c(F)cc3c(=O)c(C(=O)O)cn1c23` [Example 4, 3S-9-fluoro-3-methyl-10(4-methyl-1-piperazinyl)-7-oxo-7H-pyrido[1,2,3-de][1,4]-benzoxazine-6-carboxylic acid], the MIC in test [1] (4418) is 0.125 µg/mL (≈ 0.346 µM); in test [2], not above 0.015 µg/mL; in [3] it was 0.03 µg/mL (≈ 0.083 µM); in test [4] (Klebsiella, 57USA), 0.125 µg/mL (≈ 0.346 µM); in test [5] (Klebsiella, 6318), 0.125 µg/mL (≈ 0.346 µM); in [6] (setting [19]), 0.06 µg/mL (≈ 0.166 µM). For the same compound, the MIC in [7] (setting [20]) came to 0.06 µg/mL (≈ 0.166 µM); in [8] (setting [21]), 0.06 µg/mL (≈ 0.166 µM); in test [9], 0.06 µg/mL (≈ 0.166 µM); in [10], 0.25 µg/mL (≈ 0.692 µM); in test [11] it was 1 µg/mL (≈ 2.77 µM); in test [12], 0.25 µg/mL (≈ 0.692 µM). Besides, the MIC in test [13] came out at 0.25 µg/mL (≈ 0.692 µM); in [14], 0.25 µg/mL (≈ 0.692 µM); in test [15], 1 µg/mL (≈ 2.77 µM).

On to `C[C@@H]1COc2c(N3CCN(C)CC3)c(F)cc3c(=O)c(C(=O)O)cn1c23` [Example 16, 3R-9-fluoro-3-methyl-10(4-methyl-1-piperazinyl)-7-oxo-7H-pyrido[1,2,3-de][1,4]-benzoxazine-6-carboxylic acid], for which the MIC in test [1] (setting [16]) stood at 2 µg/mL (≈ 5.53 µM); in test [2] it was 0.25 µg/mL (≈ 0.692 µM); in test [3], 1 µg/mL (≈ 2.77 µM); in [4] (setting [17]) it was 4 µg/mL (≈ 11.1 µM); in test [5] (setting [18]), 4 µg/mL (≈ 11.1 µM); in test [6] (setting [19]), 2 µg/mL (≈ 5.53 µM). Also, the MIC in [7] (setting [20]) is 4 µg/mL (≈ 11.1 µM); in test [8] (setting [21]), 2 µg/mL (≈ 5.53 µM); in [9], 4 µg/mL (≈ 11.1 µM); in test [10], 4 µg/mL (≈ 11.1 µM); in [11], 32 µg/mL (≈ 88.6 µM); in test [12] it was 8 µg/mL (≈ 22.1 µM). Also, the MIC amounted to 8 µg/mL (≈ 22.1 µM) in test [13], 16 µg/mL (≈ 44.3 µM) in [14] and 32 µg/mL (≈ 88.6 µM) in test [15].
